Experimental data from patent US11643388B2, “Inhibitors of alpha 2 beta 1 integrin and methods of use thereof” (The Regents of the University of California, priority 2020, dated 2023).
pIC50: −log10 of the molar value. In brackets after ≈: the same amount, converted by molar mass.

Experiments:
Metabolic stability (h) = format: in vitro ADME, human; conditions: % remaining at 45 min
α4β1 = α4β1 (Homo sapiens, UniProt P05556+P13612); experiment: α4β1 cell adhesion; format: cell-based
Plasma stability (h) = format: in vitro ADME, human; conditions: % remaining at 60 min
Caco-2 permeability = format: in vitro ADME; conditions: human; for Papp A→B: A-B direction; for Papp B→A: B-A direction
α2β1 [1] = target: T1, α2β1 (Homo sapiens, UniProt P05556+P17301); experiment: α2β1 cell adhesion; format: cell-based
[2] = Kinetic solubility (aqueous); format: physicochemical; conditions: kinetic from dmso stock, read-out: Kinetic Solubility (Aq)
α2β1 [3] = target: T1, α2β1; experiment: α2β1 cell adhesion assay; format: cell-based

Chain of α4β1 (P13612 34-1032): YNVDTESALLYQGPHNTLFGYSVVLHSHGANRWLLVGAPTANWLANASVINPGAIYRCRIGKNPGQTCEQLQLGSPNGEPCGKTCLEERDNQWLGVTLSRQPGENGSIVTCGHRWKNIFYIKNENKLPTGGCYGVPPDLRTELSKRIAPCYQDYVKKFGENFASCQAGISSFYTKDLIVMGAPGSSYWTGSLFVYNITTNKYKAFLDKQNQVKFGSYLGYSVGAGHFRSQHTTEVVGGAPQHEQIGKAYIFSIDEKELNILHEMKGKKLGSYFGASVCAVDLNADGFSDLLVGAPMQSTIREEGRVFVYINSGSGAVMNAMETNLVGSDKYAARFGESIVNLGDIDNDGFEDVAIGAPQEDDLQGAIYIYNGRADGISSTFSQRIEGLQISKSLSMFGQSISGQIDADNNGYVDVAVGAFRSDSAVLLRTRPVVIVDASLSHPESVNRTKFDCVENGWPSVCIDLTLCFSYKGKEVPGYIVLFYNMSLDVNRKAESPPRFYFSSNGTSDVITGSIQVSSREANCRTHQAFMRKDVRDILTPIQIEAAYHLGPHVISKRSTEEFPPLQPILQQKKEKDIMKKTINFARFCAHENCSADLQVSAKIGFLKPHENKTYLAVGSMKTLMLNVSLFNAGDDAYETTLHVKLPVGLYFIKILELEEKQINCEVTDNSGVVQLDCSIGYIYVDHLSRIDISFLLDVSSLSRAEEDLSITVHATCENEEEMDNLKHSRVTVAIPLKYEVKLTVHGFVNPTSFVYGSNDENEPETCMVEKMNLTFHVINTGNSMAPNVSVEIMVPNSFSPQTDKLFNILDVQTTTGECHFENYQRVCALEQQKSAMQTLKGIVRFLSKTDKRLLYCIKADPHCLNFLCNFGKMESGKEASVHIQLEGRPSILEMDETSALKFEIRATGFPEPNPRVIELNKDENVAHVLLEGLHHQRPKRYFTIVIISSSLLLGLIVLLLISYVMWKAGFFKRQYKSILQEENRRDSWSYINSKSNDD
Chain of α4β1 (P05556 21-798): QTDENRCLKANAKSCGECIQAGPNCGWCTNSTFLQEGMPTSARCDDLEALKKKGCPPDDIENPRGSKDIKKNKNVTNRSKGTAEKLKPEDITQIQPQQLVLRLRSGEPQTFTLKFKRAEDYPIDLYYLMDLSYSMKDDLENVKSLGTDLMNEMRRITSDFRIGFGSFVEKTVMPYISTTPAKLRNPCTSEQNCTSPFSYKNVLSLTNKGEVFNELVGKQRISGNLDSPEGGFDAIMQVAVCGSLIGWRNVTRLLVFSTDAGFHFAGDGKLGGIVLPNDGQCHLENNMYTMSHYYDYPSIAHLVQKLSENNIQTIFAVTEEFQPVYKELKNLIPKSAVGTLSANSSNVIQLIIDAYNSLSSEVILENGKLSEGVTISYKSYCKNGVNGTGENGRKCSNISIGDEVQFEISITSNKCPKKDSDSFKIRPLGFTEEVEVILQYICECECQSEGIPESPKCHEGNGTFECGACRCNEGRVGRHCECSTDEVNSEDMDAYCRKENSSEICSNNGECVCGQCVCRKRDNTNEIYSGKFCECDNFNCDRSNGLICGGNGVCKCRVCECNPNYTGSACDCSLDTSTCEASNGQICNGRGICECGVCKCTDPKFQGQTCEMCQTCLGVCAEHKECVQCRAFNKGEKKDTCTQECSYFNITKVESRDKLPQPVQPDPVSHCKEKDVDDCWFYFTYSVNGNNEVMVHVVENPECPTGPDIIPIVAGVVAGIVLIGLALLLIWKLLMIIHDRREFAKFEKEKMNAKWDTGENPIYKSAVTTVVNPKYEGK
T1 sequence (P17301 30-1181): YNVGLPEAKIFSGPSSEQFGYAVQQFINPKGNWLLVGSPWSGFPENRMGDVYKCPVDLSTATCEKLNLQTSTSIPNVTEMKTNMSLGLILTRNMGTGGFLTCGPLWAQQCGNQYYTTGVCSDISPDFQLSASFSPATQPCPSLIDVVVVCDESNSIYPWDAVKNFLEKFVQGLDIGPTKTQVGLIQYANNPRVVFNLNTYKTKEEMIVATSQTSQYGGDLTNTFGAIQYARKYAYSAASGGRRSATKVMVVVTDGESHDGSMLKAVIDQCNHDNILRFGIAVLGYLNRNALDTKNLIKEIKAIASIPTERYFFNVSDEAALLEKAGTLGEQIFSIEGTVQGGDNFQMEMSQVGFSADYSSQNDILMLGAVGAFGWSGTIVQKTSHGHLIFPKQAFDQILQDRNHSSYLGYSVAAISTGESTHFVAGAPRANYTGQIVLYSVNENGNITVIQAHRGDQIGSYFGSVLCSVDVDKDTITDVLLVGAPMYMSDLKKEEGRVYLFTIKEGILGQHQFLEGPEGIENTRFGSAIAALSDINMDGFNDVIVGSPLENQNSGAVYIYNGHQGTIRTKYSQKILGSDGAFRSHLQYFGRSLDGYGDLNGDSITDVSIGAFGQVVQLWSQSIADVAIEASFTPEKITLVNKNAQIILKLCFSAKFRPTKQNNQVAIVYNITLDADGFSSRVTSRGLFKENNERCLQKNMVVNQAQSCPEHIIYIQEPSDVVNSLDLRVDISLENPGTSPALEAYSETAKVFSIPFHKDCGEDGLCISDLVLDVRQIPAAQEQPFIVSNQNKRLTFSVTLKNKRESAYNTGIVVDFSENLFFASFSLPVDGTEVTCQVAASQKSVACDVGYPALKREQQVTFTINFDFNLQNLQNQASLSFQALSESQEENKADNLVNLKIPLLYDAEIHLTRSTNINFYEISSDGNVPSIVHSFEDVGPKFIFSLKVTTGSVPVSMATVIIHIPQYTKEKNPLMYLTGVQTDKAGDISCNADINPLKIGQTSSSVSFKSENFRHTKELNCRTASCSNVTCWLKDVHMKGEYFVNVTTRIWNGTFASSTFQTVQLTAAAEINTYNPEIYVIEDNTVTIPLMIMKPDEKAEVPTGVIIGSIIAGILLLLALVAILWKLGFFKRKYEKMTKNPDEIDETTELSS
T1 sequence (P05556 21-798): as the sequence (P05556 21-798) above

For `O=C(NC[C@H](NC(=O)c1c(Cl)ccc(Nc2ncc3ccccc3n2)c1Cl)C(=O)O)N[C@@H]1CCc2ccccc21` [SU15210-0076-01, (S)-2-(2,6-dichloro-3-(quinazolin-2-ylamino)benzamido)-3-(3-((R)-2,3-dihydro-1H-inden-1-yl)ureido)propanoic Acid], the “Met Stab(h) % rem/45 min” value (Metabolic stability (h)) was 96.3%, the pIC50 (α4β1) was 5.54 and the “Plasma Stab(h) % rem/60 min” value (Plasma stability (h)) was 55.6%. For the same compound, the Papp A→B (Caco-2 permeability) was 0.2 ×10⁻⁶ cm/s, the Papp B→A (Caco-2 permeability) was 24.2 ×10⁻⁶ cm/s and the pIC50 (α2β1 [1]) was > 6.30.

With `O=C(NC[C@H](NC(=O)c1c(Cl)ccc(N2CC(c3ccccc3)C2)c1Cl)C(=O)O)N[C@@H]1CCc2ccccc21` [SU15210-0080-01, (S)-2-(2,6-dichloro-3-(3-phenylazetidin-1-yl)benzamido)-3-(3-((R)-2,3-dihydro-1H-inden-1-yl)ureido)propanoic Acid] the pIC50 (α4β1) was 4.43 and the pIC50 (α2β1 [1]) was > 6.30.

In the case of `O=C(NC[C@H](NC(=O)c1c(Cl)cc(C(=O)NCc2cccc(O)c2)cc1Cl)C(=O)O)N[C@@H]1CCc2ccccc21` [SU15210-0095-01, (S)-2-(2,6-dichloro-4-(3-hydroxybenzylcarbamoyl)benzamido)-3-(3-((R)-2,3-dihydro-1H-inden-1-yl)ureido)propanoic Acid], the “Met Stab(h) % rem/45 min” value (Metabolic stability (h)) was 99.6%, the pIC50 (α4β1) was 4.68 and the “Plasma Stab(h) % rem/60 min” value (Plasma stability (h)) was 99.4%. For the same compound, the Papp A→B (Caco-2 permeability) was 3.2 ×10⁻⁶ cm/s, the Papp B→A (Caco-2 permeability) was 1.6 ×10⁻⁶ cm/s and the pIC50 (α2β1 [1]) was > 6.30.

In the case of `O=C(NC[C@H](NC(=O)c1c(Cl)ccc(NCCCc2ccccc2)c1Cl)C(=O)O)N[C@@H]1CCc2ccccc21` [SU15210-0098-01, (S)-2-(2,6-dichloro-3-(3-phenylpropylamino)benzamido)-3-(3-((R)-2,3-dihydro-1H-inden-1-yl)ureido)propanoic Acid], the pIC50 (α4β1) was 4.49 and the pIC50 (α2β1 [1]) was > 6.30.

In the case of `O=C(Cc1cccc(Cl)c1)Nc1ccc(Cl)c(C(=O)N[C@@H](CNC(=O)N[C@@H]2CCc3ccccc32)C(=O)O)c1Cl` [SU15210-0099-01, (S)-2-(2,6-dichloro-3-(2-(3-chlorophenyl)acetamido)benzamido)-3-(3-((R)-2,3-dihydro-1H-inden-1-yl)ureido)propanoic Acid], the “Met Stab(h) % rem/45 min” value (Metabolic stability (h)) was 72.3%, the “Plasma Stab(h) % rem/60 min” value (Plasma stability (h)) was 85.84% and the Papp A→B (Caco-2 permeability) was 2.7 ×10⁻⁶ cm/s. The Papp B→A (Caco-2 permeability) was 20.1 ×10⁻⁶ cm/s, the pIC50 (α2β1 [1]) was > 6.30 and the solubility kinetic [2] was 66.9 µM (≈ 40.4 µg/mL).

With `O=C(CCc1ccccc1)Nc1ccc(Cl)c(C(=O)N[C@@H](CNC(=O)N[C@@H]2CCc3ccccc32)C(=O)O)c1Cl` [SU15210-0124-01, (S)-2-(2,6-dichloro-3-(3-phenylpropanamido)benzamido)-3-(3-((R)-2,3-dihydro-1H-inden-1-yl)ureido)propanoic Acid] the pIC50 (α4β1) was 4.68 and the pIC50 (α2β1 [1]) was > 6.30.

In the case of `CN(Cc1ccccc1)C(=O)NC[C@H](NC(=O)c1c(Cl)cccc1Cl)C(=O)O` [SU15210-0167-01], the pIC50 (α4β1) was 4.08 and the pIC50 (α2β1 [1]) was > 6.30.

With `O=C(NC[C@H](NC(=O)c1c(Cl)cc2c(c1Cl)CCN(C(=O)c1ccccc1)C2)C(=O)O)N[C@@H]1CCc2ccccc21` [SU15210-0173-01] the “Met Stab(h) % rem/45 min” value (Metabolic stability (h)) was 65%, the “Plasma Stab(h) % rem/60 min” value (Plasma stability (h)) was 108% and the Papp A→B (Caco-2 permeability) was 0.8 ×10⁻⁶ cm/s. The Papp B→A (Caco-2 permeability) was 6.8 ×10⁻⁶ cm/s and the pIC50 (α2β1 [1]) was > 6.30.

For `O=C(NC[C@H](NC(=O)c1c(Cl)cc(C(=O)NCc2cccc(Cl)c2)cc1Cl)C(=O)O)N[C@@H]1CCc2ccccc21` [SU15210-0185-01, (S)-2-(2,6-dichloro-4-(3-chlorobenzylcarbamoyl)benzamido)-3-(3-((R)-2,3-dihydro-1H-inden-1-yl)ureido)propanoic Acid], the Papp A→B (Caco-2 permeability) was 2.2 ×10⁻⁶ cm/s, the Papp B→A (Caco-2 permeability) was 5.53 ×10⁻⁶ cm/s and the pIC50 (α2β1 [1]) was > 6.30.

With `CN(Cc1ccccc1)C(=O)NC[C@H](NC(=O)c1c(Cl)cc(C(=O)NCc2cccc(O)c2)cc1Cl)C(=O)O` [SU15210-0186-01, (S)-3-(3-benzyl-3-methylureido)-2-(2,6-dichloro-4-(3-hydroxybenzylcarbamoyl)benzamido)propanoic Acid] the Papp A→B (Caco-2 permeability) was 2.2 ×10⁻⁶ cm/s, the Papp B→A (Caco-2 permeability) was 1.5 ×10⁻⁶ cm/s and the pIC50 (α2β1 [1]) was > 6.30.

With `CN(Cc1ccccc1)C(=O)NC[C@H](NC(=O)c1c(Cl)cc2c(c1Cl)CCN(Cc1cccc(Cl)c1)C2=O)C(=O)O` [SU15210-0242-01, (S)-3-(3-benzyl-3-methylureido)-2-(5,7-dichloro-2-(3-chlorobenzyl)-1-oxo-1,2,3,4-tetrahydroisoquinoline-6-carboxamido)propanoic Acid] the pIC50 (α2β1 [3]) was > 6.30.

In the case of `O=C(NC[C@H](NC(=O)c1c(Cl)cc2c(c1Cl)CCN(Cc1cccc(Cl)c1)C2=O)C(=O)O)N[C@@H]1CCc2ccccc21` [SU15210-0243-01, (2S)-2-[[5,7-dichloro-2-[(3-chlorophenyl)methyl]-1-oxo-3,4-dihydroisoquinoline-6-carbonyl]amino]-3-[[(1R)-indan-1-yl]carbamoylamino]propanoic Acid], the pIC50 (α2β1 [3]) was < 5.30.

For `O=C(NC[C@H](NC(=O)c1c(Cl)cc2c(c1Cl)CCN(Cc1ccc(Cl)cc1)C2=O)C(=O)O)N[C@@H]1CCc2ccccc21` [SU15210-0244-01], the pIC50 (α2β1 [3]) was < 5.30.

For `CN(Cc1ccccc1)C(=O)NC[C@H](NC(=O)c1c(Cl)cc2c(c1Cl)CCN(Cc1ccccc1)C2=O)C(=O)O` [SU15210-0245-01, (2S)-2-[(2-benzyl-5,7-dichloro-1-oxo-3,4-dihydroisoquinoline-6-carbonyl)amino]-3-[[benzyl(methyl)carbamoyl]amino]propanoic Acid], the pIC50 (α2β1 [3]) was < 5.30.

For `CN(Cc1ccccc1)C(=O)NC[C@H](NC(=O)c1c(Cl)cc2c(c1Cl)CCN(CC1CC1)C2=O)C(=O)O` [SU15210-0251, (2S)-3-[[benzyl(methyl)carbamoyl]amino]-2-[[5,7-dichloro-2-(cyclopropylmethyl)-1-oxo-3,4-dihydroisoquinoline-6-carbonyl]amino]propanoic Acid], the pIC50 (α2β1 [3]) was 5.30 to 6.00.

For `CN(Cc1ccccc1)C(=O)NC[C@H](NC(=O)c1c(Cl)cc2c(c1Cl)CCN(CC#CC1CC1)C2=O)C(=O)O` [SU15210-0265, (S)-3-(3-benzyl-3-methylureido)-2-(5,7-dichloro-2-(3-cyclopropylprop-2-ynyl)-1-oxo-1,2,3,4-tetrahydroisoquinoline-6-carboxamido)propanoic Acid], the pIC50 (α2β1 [3]) was < 5.30.

With `CCOC(=O)[C@H](CNC(=O)N(C)Cc1ccccc1)NC(=O)c1c(Cl)cc2c(c1Cl)CCN(Cc1cccc(Cl)c1)C2=O` [SU15210-0270-01, (S)-ethyl 3-(3-benzyl-3-methylureido)-2-(5,7-dichloro-2-(3-chlorobenzyl)-1-oxo-1,2,3,4-tetrahydroisoquinoline-6-carboxamido)propanoate] the pIC50 (α2β1 [3]) was 6.00 to 6.30.

For `CCOC(=O)[C@H](CNC(=O)N[C@@H]1CCc2ccccc21)NC(=O)c1c(Cl)cc(C(=O)NCc2cccc(Cl)c2)cc1Cl` [SU15210-0280, (S)-ethyl 2-(2,6-dichloro-4-(3-chlorobenzylcarbamoyl)benzamido)-3-(3-((R)-2,3-dihydro-1H-inden-1-yl)ureido)propanoate], the pIC50 (α2β1 [3]) was 5.30 to 6.00.

For `O=C(NC[C@H](NC(=O)c1c(Cl)cc(C(=O)NCc2cccc(F)c2)cc1Cl)C(=O)O)N[C@@H]1CCc2ccccc21` [SU15210-0289, (S)-2-(2,6-dichloro-4-(3-fluorobenzylcarbamoyl)benzamido)-3-(3-((R)-2,3-dihydro-1H-inden-1-yl)ureido)propanoic Acid], the pIC50 (α2β1 [3]) was > 6.30.

For `COc1cccc(CNC(=O)c2cc(Cl)c(C(=O)N[C@@H](CNC(=O)N[C@@H]3CCc4ccccc43)C(=O)O)c(Cl)c2)c1` [SU15210-0290-01, (S)-2-(2,6-dichloro-4-(3-methoxybenzylcarbamoyl)benzamido)-3-(3-((R)-2,3-dihydro-1H-inden-1-yl)ureido)propanoic Acid], the pIC50 (α2β1 [3]) was > 6.30.

In the case of `O=C(NC[C@H](NC(=O)c1c(Cl)cc(C(=O)NCc2ccc(Cl)c(Cl)c2)cc1Cl)C(=O)O)N[C@@H]1CCc2ccccc21` [SU15210-0291, (S)-2-(2,6-dichloro-4-(3,4-dichlorobenzylcarbamoyl)benzamido)-3-(3-((R)-2,3-dihydro-1H-inden-1-yl)ureido)propanoic Acid], the pIC50 (α2β1 [3]) was > 6.30.

For `N#Cc1cccc(CNC(=O)c2cc(Cl)c(C(=O)N[C@@H](CNC(=O)N[C@@H]3CCc4ccccc43)C(=O)O)c(Cl)c2)c1` [SU15210-0292, (S)-2-(2,6-dichloro-4-(3-cyanobenzylcarbamoyl)benzamido)-3-(3-((R)-2,3-dihydro-1H-inden-1-yl)ureido)propanoic Acid], the pIC50 (α2β1 [3]) was > 6.30.

With `O=C(NC[C@H](NC(=O)c1c(Cl)cc(C(=O)NCc2cccc(C(F)(F)F)c2)cc1Cl)C(=O)O)N[C@@H]1CCc2ccccc21` [SU15210-0293, (S)-2-(2,6-dichloro-4-(3-(trifluoromethyl)benzylcarbamoyl)benzamido)-3-(3-((R)-2,3-dihydro-1H-inden-1-yl)ureido)propanoic Acid] the pIC50 (α2β1 [3]) was > 6.30.

`O=C(NC[C@H](NC(=O)c1c(Cl)cc(C(=O)NCc2cccc(Cl)c2)cc1Cl)C(=O)O)N[C@@H]1CCc2cc(Cl)ccc21` [SU15210-0294, (S)-3-(3-((R)-5-chloro-2,3-dihydro-1H-inden-1-yl)ureido)-2-(2,6-dichloro-4-(3-chlorobenzylcarbamoyl)benzamido)propanoic Acid] gave a pIC50 (α2β1 [3]) of 6.00 to 6.30.
